We go through five compounds from DBAASP.

In brackets after ≈: the same amount, converted by molar mass. Where only a bound is given, the exact number is not on record here.

Some test systems named below: Escherichia coli SPE 001; Cladosporium herbarum; Botrytis cinerea; Alternaria alternata; Xanthomonas citri; Methylobacterium sp.; Escherichia coli MG1655; Vibrio cholerae.
Assay in all cases: ≥ marks a high value that may be exact or a test limit, other limits are often not marked, values filed in µg/mL are converted to µM
Assay [1] relates to Staphylococcus aureus SPM 101.
For assay [2], the system named is Xanthomonas vesicatoria DSM 50861.
Assay [3] deals with Pseudomonas syringae pv. syringae DSM 10604.
The subject of assay [4] is Clavibacter michiganensis subsp. michiganensis DSM 46294.
Assay [5] has as its system Pectobacterium carotovorum subsp. carotovorum DSM 30168.
The subject of assay [6] is Staphylococcus aureus 90857.
Assay [7] has as its system Pseudomonas corrugata DSM 7228.
Assay [8] concerns Pseudomonas syringae pv. tomato DC3000.
The test system of assay [9] is Sinorhizobium meliloti USDA 1002.
Assay [10] relates to Staphylococcus aureus ATCC 25923.
The subject of assay [11] is Streptococcus pneumoniae DSM 11865.
Assay [12] has as its system Escherichia coli DSM 1103.
In assay [13] the test system is Klebsiella pneumoniae DSM 681.
Assay [14] relates to Pseudomonas aeruginosa DSM 1128.
Assay [15] relates to Staphylococcus aureus ATCC 43300.
Assay [16] relates to Bacillus subtilis MTCC 14416.
Assay [17] relates to Enterococcus faecalis ATCC 29212.
For assay [18], the system named is Staphylococcus aureus MTCC 9542.

On to `CC(C)C[C@H](NC(=O)[C@H](CCCCN)NC(=O)[C@H](CC(C)C)NC(=O)[C@H](CC(C)C)NC(=O)[C@H](CC(C)C)NC(=O)[C@H](CC(C)C)NC(=O)[C@H](CCCCN)NC(=O)[C@H](CC(C)C)NC(=O)[C@@H](N)CCCCN)C(=O)N[C@@H](CCCCN)C(N)=O` [KLKLLLLKLK], for which the MIC (commonly the least concentration at which growth counts as inhibited) was 1.65 µM (≈ 2 µg/mL) in [1] and 26.5 µM (≈ 32 µg/mL) in the assay with Escherichia coli SPE 001.
On to `CC[C@H](C)[C@H](NC(=O)[C@H](CCCCN)NC(=O)[C@H](CCCCN)NC(=O)[C@H](CC(C)C)NC(=O)[C@H](Cc1ccccc1)NC(=O)[C@H](CCCN=C(N)N)NC(=O)[C@@H](N)CC(C)C)C(=O)N[C@@H](CC(C)C)C(=O)N[C@@H](CCCCN)C(=O)N[C@@H](Cc1cnc[nH]1)C(=O)N[C@@H](CC(C)C)C(=O)N[C@@H](Cc1ccccc1)C(N)=O` [LRFLKKILKHLF], for which the MIC stood at 3.21 µM (≈ 5 µg/mL) in [2]; 6.43 µM (≈ 9.99 µg/mL) in assay [3]; 6.43 µM (≈ 9.99 µg/mL) with Cladosporium herbarum; 6.43 µM (≈ 9.99 µg/mL) in assay [4]; 12.9 µM (≈ 20 µg/mL) in assay [5]; 1.5 µM (≈ 2.33 µg/mL) in assay [6]. Further, the MIC is at least 64.3 µM against Botrytis cinerea, 12.9 µM (≈ 20 µg/mL) in assay [7], 6.43 µM (≈ 9.99 µg/mL) in assay [8] and at least 64.3 µM against Alternaria alternata.
Take `CC[C@H](C)[C@H](NC(=O)[C@H](C)NC(=O)CNC(=O)[C@H](Cc1ccccc1)NC(=O)[C@@H](NC(=O)[C@@H](N)CCCCN)[C@@H](C)CC)C(=O)N[C@@H](Cc1c[nH]c2ccccc12)C(=O)N1CCC[C@H]1C(=O)N[C@@H](CC(C)C)C(=O)N[C@@H](C)C(=O)N[C@@H](CC(C)C)C(=O)NCC(=O)N[C@@H](C)C(=O)N[C@@H](CC(C)C)C(=O)N[C@@H](CCCCN)C(=O)N[C@@H](CC(N)=O)C(=O)N[C@@H](CC(C)C)C(=O)N[C@H](C(=O)N[C@@H](CCCCN)C(=O)O)[C@@H](C)CC` [KIFGAIWPLALGALKNLIK]: the MIC came out at 2 µM (≈ 4.13 µg/mL) in the assay with Xanthomonas citri, 4 µM (≈ 8.27 µg/mL) in the assay on Methylobacterium sp. and 4 µM (≈ 8.27 µg/mL) in [9].
As to `CC(C)C[C@H](NC(=O)[C@@H](NC(=O)[C@H](C)NC(=O)[C@H](Cc1c[nH]c2ccccc12)NC(=O)[C@H](CCCN=C(N)N)NC(=O)CNC(=O)CNC(=O)[C@H](CCCN=C(N)N)NC(=O)[C@@H](NC(=O)[C@H](CCCN=C(N)N)NC(=O)[C@H](Cc1c[nH]c2ccccc12)NC(=O)[C@H](Cc1ccc(O)cc1)NC(=O)[C@H](Cc1ccc(O)cc1)NC(=O)[C@H](CCCCN)NC(=O)[C@H](CCC(N)=O)NC(=O)[C@@H](N)CC(C)C)C(C)C)C(C)C)C(=O)N[C@@H](CO)C(=O)O` [LQKYYWRVRGGRWAVLS], the minimal inhibitory concentration (MIC) in [10] is 70.1 µM (≈ 150 µg/mL); in [11], at least 140 µM; in assay [12], at least 140 µM; in assay [13], at least 140 µM; in assay [14], at least 140 µM.
With `CC[C@H](C)[C@H](NC(=O)[C@H](C)NC(=O)[C@H](CS)NC(=O)[C@H](Cc1ccccc1)NC(=O)[C@@H](NC(=O)[C@H](CCCCN)NC(=O)[C@@H]1CCCN1C(=O)[C@H](CC(C)C)NC(=O)[C@H](Cc1ccccc1)NC(=O)[C@H](CCCCN)NC(=O)[C@H](C)NC(=O)[C@H](C)NC(=O)[C@H](CCSC)NC(=O)CNC(=O)[C@H](C)NC(=O)[C@@H](NC(=O)[C@H](Cc1ccccc1)NC(=O)[C@@H]1CCCN1C(=O)[C@H](CC(C)C)NC(=O)[C@@H](N)Cc1ccccc1)[C@@H](C)CC)[C@@H](C)CC)C(=O)N[C@@H](CO)C(=O)N[C@@H](CCCCN)C(=O)N[C@@H](CCCCN)C(N)=O` [FLPFIAGMAAKFLPKIFCAISKK], the MIC against Escherichia coli MG1655 is 7.87 µM (≈ 20 µg/mL); against Vibrio cholerae, 9.83 µM (≈ 25 µg/mL); in assay [15] it was 2.46 µM (≈ 6.25 µg/mL); in assay [16], 9.83 µM (≈ 25 µg/mL); in assay [17], 9.83 µM (≈ 25 µg/mL); in assay [18] it was 9.83 µM (≈ 25 µg/mL).
